Laboratory results taken from the NIST ThermoML archive (doi:10.1021/je800012v).

Conditions: Liquid

CCCCCC [hexane]
mass density [kg/m3]
Conditions	100 kPa	2500 kPa	5000 kPa	10000 kPa	15000 kPa	20000 kPa	25000 kPa	30000 kPa	35000 kPa
283.15 K	668.07	670.36	672.69	677.06	681.19	685.08	688.82	692.35	695.65
293.15 K	659.18	661.67	664.17	668.87	673.27	677.4	681.33	685.07	688.63
298.15 K	654.61	657.21	659.81	664.66	669.24	673.51	677.56	681.4	685.02
303.15 K	649.97	652.7	655.36	660.53	665.23	669.63	673.81	677.77	681.45
313.15 K	640.82	643.76	646.69	652.13	657.16	661.86	666.28	670.44	674.41
323.15 K	631.41	634.61	637.8	643.69	649.12	654.14	658.84	663.23	667.4
333.15 K	621.8	625.32	628.77	635.13	640.94	646.27	651.23	655.89	660.3

CCCCCl [1-chlorobutane]
mass density [kg/m3]
Conditions	100 kPa	2500 kPa	5000 kPa	10000 kPa	15000 kPa	20000 kPa	25000 kPa	30000 kPa	35000 kPa
283.15 K	897.21	899.51	901.82	906.3	910.57	914.69	918.63	922.33	926.05
293.15 K	886.18	888.63	891.13	895.89	–	904.73	908.9	912.88	916.77
298.15 K	880.63	883.17	885.72	890.65	895.36	899.79	904.09	908.22	912.17
303.15 K	874.92	877.59	880.23	885.43	890.24	894.84	899.24	903.46	907.47
313.15 K	863.82	866.65	869.49	874.93	880.07	884.94	889.61	894.04	898.33
323.15 K	852.43	855.47	858.54	864.35	869.85	875.03	879.94	884.62	889.1
333.15 K	840.79	844.06	847.37	853.61	859.47	864.97	870.17	875.12	879.82
